Results taken from US20250228873A1, “C25 R AND S ISOMERS OF AMINOSTEROLS AND METHODS OF MAKING AND USING THE SAME” (Enterin, Inc., priority 2022, published 2025).
Read-outs that look alike come from different tables or passages of the source.

Legend:
[1] = molecular target: T1, PTPN7/LC-PTP (Homo sapiens, UniProt P35236); experiment: Phosphatase panel, DiFMUP fluorescence assay; assay type: biochemical
T1 construct: purchased Recation Biology Inc
T1 sequence (P35236 1-360): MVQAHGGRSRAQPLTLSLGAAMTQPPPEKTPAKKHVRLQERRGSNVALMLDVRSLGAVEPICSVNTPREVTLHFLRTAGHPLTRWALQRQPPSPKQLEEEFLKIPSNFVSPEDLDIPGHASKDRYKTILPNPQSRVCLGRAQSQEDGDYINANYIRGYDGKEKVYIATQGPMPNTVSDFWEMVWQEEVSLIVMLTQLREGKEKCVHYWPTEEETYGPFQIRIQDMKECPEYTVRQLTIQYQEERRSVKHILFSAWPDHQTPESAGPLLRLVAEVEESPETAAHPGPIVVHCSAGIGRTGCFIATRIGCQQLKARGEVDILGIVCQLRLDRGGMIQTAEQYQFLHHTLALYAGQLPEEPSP

[2] = molecular target: T2, DUSP22/MKPX (Homo sapiens, UniProt Q9NRW4); experiment: Phosphatase panel, DiFMUP fluorescence assay; assay type: biochemical
T2 construct: purchased Recation Biology Inc
T2 sequence (Q9NRW4 1-184): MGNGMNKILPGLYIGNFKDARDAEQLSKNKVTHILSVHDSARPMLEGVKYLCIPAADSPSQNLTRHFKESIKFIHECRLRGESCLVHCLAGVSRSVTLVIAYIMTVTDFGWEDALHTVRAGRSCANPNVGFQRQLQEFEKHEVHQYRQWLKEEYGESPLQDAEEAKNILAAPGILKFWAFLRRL

[3] = molecular target: T3, PTPN11/SHP2-FL (Homo sapiens, UniProt Q06124); experiment: Phosphatase panel, DiFMUP assay with activating peptide
T3 sequence (Q06124 2-597 isoform Q06124-1): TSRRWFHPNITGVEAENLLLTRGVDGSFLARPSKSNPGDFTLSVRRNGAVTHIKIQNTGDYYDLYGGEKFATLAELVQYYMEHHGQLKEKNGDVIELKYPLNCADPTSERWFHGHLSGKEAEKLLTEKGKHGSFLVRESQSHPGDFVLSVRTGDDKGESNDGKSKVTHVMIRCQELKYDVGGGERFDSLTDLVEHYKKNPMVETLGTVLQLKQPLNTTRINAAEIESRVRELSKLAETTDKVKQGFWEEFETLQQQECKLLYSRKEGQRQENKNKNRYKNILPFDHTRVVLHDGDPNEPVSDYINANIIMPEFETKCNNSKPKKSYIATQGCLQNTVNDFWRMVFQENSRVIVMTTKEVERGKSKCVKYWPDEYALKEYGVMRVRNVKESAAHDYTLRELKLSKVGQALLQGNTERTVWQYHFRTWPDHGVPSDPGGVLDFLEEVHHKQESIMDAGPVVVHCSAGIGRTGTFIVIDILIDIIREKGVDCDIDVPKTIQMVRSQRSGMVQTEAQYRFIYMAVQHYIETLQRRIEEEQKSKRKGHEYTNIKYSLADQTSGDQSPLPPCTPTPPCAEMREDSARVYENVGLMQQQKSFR

[4] = molecular target: T4, PTPN1/PTP1B-CD (Homo sapiens, UniProt P18031); experiment: Phosphatase panel, DiFMUP fluorescence assay; assay type: biochemical
T4 construct: purchased Recation Biology Inc
T4 sequence (P18031 3-277 limits assumed): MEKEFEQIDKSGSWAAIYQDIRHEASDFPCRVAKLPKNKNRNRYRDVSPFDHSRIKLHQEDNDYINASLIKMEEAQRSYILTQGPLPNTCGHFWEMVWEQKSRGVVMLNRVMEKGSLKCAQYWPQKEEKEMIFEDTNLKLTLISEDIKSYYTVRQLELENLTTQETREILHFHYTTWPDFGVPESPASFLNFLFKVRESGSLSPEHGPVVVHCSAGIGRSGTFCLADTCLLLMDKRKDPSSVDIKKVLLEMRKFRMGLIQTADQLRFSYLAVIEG

[5] = molecular target: T5, PTPN2/TC-PTP (Homo sapiens, UniProt P17706); experiment: Phosphatase panel, DiFMUP fluorescence assay; assay type: biochemical
T5 construct: purchased Recation Biology Inc
T5 sequence (P17706 1-415): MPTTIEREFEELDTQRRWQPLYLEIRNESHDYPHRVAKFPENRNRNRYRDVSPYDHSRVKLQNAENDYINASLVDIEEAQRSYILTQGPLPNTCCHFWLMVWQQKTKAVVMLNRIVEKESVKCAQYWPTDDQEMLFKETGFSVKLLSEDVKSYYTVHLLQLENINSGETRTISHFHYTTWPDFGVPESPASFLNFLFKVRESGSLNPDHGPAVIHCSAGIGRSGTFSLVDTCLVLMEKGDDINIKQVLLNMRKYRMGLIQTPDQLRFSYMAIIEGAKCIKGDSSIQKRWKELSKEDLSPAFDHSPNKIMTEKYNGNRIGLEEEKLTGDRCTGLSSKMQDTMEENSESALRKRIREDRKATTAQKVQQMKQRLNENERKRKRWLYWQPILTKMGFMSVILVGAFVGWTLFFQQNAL

[6] = molecular target: T6, PP1B (Homo sapiens, UniProt P62140); experiment: Phosphatase panel, DiFMUP fluorescence assay; assay type: biochemical
T6 construct: purchased Recation Biology Inc
T6 sequence (P62140 whole entry): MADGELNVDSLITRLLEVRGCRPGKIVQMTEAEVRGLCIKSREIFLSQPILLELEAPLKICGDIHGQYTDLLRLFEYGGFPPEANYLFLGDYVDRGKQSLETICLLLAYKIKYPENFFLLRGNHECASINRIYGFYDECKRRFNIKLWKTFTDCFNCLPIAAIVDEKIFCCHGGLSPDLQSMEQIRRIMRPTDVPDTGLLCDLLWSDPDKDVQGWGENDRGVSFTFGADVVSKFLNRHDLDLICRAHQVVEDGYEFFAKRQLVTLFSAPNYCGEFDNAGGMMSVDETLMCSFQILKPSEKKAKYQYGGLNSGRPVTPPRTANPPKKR

[7] = molecular target: T7, PP1A (Homo sapiens, UniProt P62136); experiment: Phosphatase panel, DiFMUP fluorescence assay; assay type: biochemical
T7 construct: purchased Recation Biology Inc
T7 sequence (P62136 whole entry): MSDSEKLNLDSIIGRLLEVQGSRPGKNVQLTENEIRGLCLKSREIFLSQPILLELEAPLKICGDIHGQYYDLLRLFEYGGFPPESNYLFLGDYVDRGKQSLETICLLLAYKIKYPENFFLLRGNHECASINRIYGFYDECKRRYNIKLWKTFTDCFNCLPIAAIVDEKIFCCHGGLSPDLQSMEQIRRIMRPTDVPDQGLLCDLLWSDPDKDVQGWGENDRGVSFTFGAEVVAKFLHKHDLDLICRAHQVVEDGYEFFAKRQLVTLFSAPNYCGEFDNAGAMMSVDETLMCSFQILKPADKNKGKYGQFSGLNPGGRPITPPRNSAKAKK

[8] = molecular target: T8, PTPN11/SHP2 (Homo sapiens, UniProt Q06124); experiment: Phosphatase panel, DiFMUP fluorescence assay; assay type: biochemical; conditions: read-out: inhibitory activity PTPN11/SHP
T8 sequence (Q06124 1-593): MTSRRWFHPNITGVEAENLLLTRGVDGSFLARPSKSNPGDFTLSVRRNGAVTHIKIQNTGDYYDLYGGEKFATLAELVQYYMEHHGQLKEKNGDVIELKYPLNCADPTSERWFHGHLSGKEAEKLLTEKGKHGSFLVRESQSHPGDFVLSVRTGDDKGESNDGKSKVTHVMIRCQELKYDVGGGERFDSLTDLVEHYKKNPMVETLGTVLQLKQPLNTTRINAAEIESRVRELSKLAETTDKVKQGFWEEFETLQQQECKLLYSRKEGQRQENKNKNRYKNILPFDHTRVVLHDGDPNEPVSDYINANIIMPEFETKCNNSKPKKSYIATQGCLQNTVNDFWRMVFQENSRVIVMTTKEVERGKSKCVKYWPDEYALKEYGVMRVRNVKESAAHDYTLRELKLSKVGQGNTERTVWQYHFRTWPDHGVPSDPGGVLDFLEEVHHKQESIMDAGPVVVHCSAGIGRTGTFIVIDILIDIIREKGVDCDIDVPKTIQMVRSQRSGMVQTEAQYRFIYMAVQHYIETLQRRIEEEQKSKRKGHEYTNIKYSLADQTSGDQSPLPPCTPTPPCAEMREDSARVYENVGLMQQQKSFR

[9] = Table 5C, read-out: Compound IC50 (M) PTPN7/LC-PTP
[10] = Table 5B, read-out: Compound IC50 (M) DUSP22/MKPX
[11] = Table 19B, read-out: inhibitory activity PTPN7/LC-PTP
[12] = Table 19B, read-out: inhibitory activity PTPN1/PTP1B-CD
[13] = Table 19B, read-out: inhibitory activity PTPN2/TC-PTP
[14] = Table 19A, read-out: inhibitory activity DUSP22/MKPXPT
[15] = Table 19A, read-out: inhibitory activity PP1B
[16] = Table 19A, read-out: inhibitory activity PP1A

| SMILES | IC50 [1, 9] | IC50 [2, 10] | IC50 [3] | IC50 [1, 11] | IC50 [4, 12] | IC50 [5, 13] | IC50 [2, 14] | IC50 [6, 15] | IC50 [7, 16] | IC50 ([8]; Table 19A) | also measured |
| --- | --- | --- | --- | --- | --- | --- | --- | --- | --- | --- | --- |
| CC(C)[C@@H](CC[C@@H](C)[C@H]1CC[C@H]2[C@@H]3[C@H](O)C[C@H]4C[C@@H](NCCCNCCCCNCCCN)CC[C@]4(C)[C@H]3CC[C@]12C)OS(=O)(=O)O (single isomer, unassigned) [ENT-02 (MSI-1436), trodusquemine] | 1.65e-06 M | 6.39e-07 M | 752 nM |  |  |  |  |  |  |  |  |
| CC(CCC[C@@H](C)[C@H]1CCC2C3C(CC[C@@]21C)[C@@]1(C)CC[C@H](NCCCNCCCCNCCCN)C[C@@H]1C[C@H]3O)C(=O)O (single isomer, unassigned) [ENT-03] | 6.34e-07 M | 1.38e-06 M | 1420 nM | 6.34e-07 M | 1.17e-07 M | > 0.0001 M | 1.38e-06 M | > 0.0001 M | > 0.0001 M | 5000 nM | IC50 ([4]; Table 5C, read-out: Compound IC50 (M) PTPN1/PTP1B-CD): 1.17e-07 M; activity at PTPN2 [5]: inactive; IC50 ([5]; Table 5C, read-out: Compound IC50 (M) PTPN2/TC-PTP): > 0.0001 M; activity at PP1B [6]: inactive; IC50 ([6]; Table 5B, read-out: Compound IC50 (M) PP1B): > 0.0001 M; activity at PP1A [7]: inactive; IC50 ([7]; Table 5B, read-out: Compound IC50 (M) PP1A): > 0.0001 M |
| CC(CCC[C@@H](C)[C@H]1CCC2C3C(CC(O)[C@@]21C)[C@@]1(C)CC[C@H](NCCCNCCCCN)C[C@@H]1C[C@H]3O)C(=O)O (single isomer, unassigned) [ENT-05] |  |  | 976 nM |  |  |  |  |  |  |  | IC50 ([1]; Table 18B, read-out: inhibitory activity PTPN7/LC-PTP): 3.97e-06 M; IC50 ([4]; Table 18B, read-out: inhibitory activity PTPN1/PTP1B-CD): 2.58e-06 M; IC50 ([5]; Table 18B, read-out: inhibitory activity PTPN2/TC-PTP): > 0.0001 M; IC50 ([2]; Table 18A, read-out: inhibitory activity DUSP22/MKPX): > 0.0001 M; IC50 ([6]; Table 18A, read-out: inhibitory activity PP1B): > 0.0001 M; IC50 ([7]; Table 18A, read-out: inhibitory activity PP1A): > 0.0001 M; IC50 ([8]; Table 18A): 18400 nM |
| CC(CCC[C@@H](C)[C@H]1CCC2C3C(CC[C@@]21C)[C@@]1(C)CC[C@H](NCCCNCCCCN)C[C@@H]1C[C@H]3O)C(=O)O (single isomer, unassigned) [ENT-06] |  |  | 3170 nM | 1.05e-06 M | 1.47e-07 M | > 0.0001 M | 2.09e-06 M | > 0.0001 M | > 0.0001 M | 3450 nM |  |
